Where “and” joins values, the source holds several entries; their conditions need not be identical. Equal values may be shown once.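 Five compound concentrations were applied to cells in 96-well plates for 48 hours; endpoints were derived by simple linear interpolation of the resulting dose-response curve. GI50 = concentration required for 50% inhibition of growth. TGI is the concentration that stops growth completely.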
Key:
Test in all cases: NCI anticancer screen, dose series, 48 h
A549 NSCLC = test system: A549 NSCLC
EKVX NSCLC = test system: EKVX NSCLC
M14 melanoma = test system: M14 melanoma
OVCAR-8 ovarian = test system: OVCAR-8 ovarian
RXF 393 renal = test system: RXF 393 renal
SK-MEL-5 melanoma = test system: SK-MEL-5 melanoma
SNB-78 CNS = test system: SNB-78 CNS
UO-31 renal = test system: UO-31 renal
DMS 273 small cell lung = test system: DMS 273 small cell lung
MDA-MB-231 breast = test system: MDA-MB-231 breast

Compound | TGI (A549 NSCLC) | TGI (EKVX NSCLC) | TGI (M14 melanoma) | TGI (OVCAR-8 ovarian) | TGI (RXF 393 renal) | TGI (SK-MEL-5 melanoma) | TGI (SNB-78 CNS) [µM] | TGI (UO-31 renal) | TGI (DMS 273 small cell lung) | GI50 (A549 NSCLC) [µM] | GI50 (EKVX NSCLC) | GI50 (M14 melanoma) | TGI (MDA-MB-231 breast) | GI50 (OVCAR-8 ovarian) | GI50 (SK-MEL-5 melanoma) | GI50 (UO-31 renal) | GI50 (RXF 393 renal) | GI50 (DMS 273 small cell lung) | GI50 (MDA-MB-231 breast) | GI50 (SNB-78 CNS)
CCOC(=O)C12CCSC1C1(C#N)C(C#N)=CC2(N=P(c2ccccc2)(c2ccccc2)c2ccccc2)n2c(=O)n(-c3ccccc3)c(=O)n21 (stereo not given) | > 100 µM | > 100 µM | > 100 µM | > 100 µM | > 100 µM | 55.4 µM | > 100 | 77.2 µM | – | – | – | – | – | – | – | – | – | – | – | –
CSc1c(S(C)=O)[nH]c2cc(Br)cc(Br)c12 (stereo not given) | 78.9 µM | 59.7 µM | 61.5 µM | 61.8 µM | 33.6 µM | 38.1 µM | 57 | 48.7 µM | 35.1 µM | – | – | – | – | – | – | – | – | – | – | –
COc1ccc(C(=O)Nc2ccc(S(=O)(=O)NCC(=O)O)cc2)cc1 | > 100 µM | > 100 µM | > 100 µM | > 100 µM | > 100 µM | > 100 µM | – | > 100 µM | > 100 µM | – | – | – | – | – | – | – | – | – | – | –
CC1(C(=O)NCCN(CCNC(=O)C2(C)CC3(C)CC(C)(C2)C(=O)NC3=O)CCNC(=O)C2(C)CC3(C)CC(C)(C2)C(=O)NC3=O)CC2(C)CC(C)(C1)C(=O)NC2=O (stereo not given) | > 100 µM | > 100 µM | > 100 µM | > 100 µM | > 100 µM | – | > 100 | > 100 µM | > 100 µM | – | – | – | – | – | – | – | – | – | – | –
S=c1nc[nH]c2nc[nH]c12 | > 100 µM and 714 µM and > 750 µM | > 100 µM and 741 µM and > 750 µM | – | > 100 µM and 739 µM and > 532 µM | > 100 µM and 629 µM and > 750 µM | 62.2 µM and 285 µM and > 430 µM | 670 | > 100 µM and 619 µM | 565 µM | 65.9 | > 100 µM and 353 µM | 0.418 µM and 3.92 µM | > 100 µM and 694 µM and > 750 µM | 3.74 µM and 35.5 µM | 5.4 µM and 46.1 µM | 4.1 µM and 5.55 µM | – | – | – | –
Cc1ccc(/C=N/NS(=O)(=O)c2ccccc2)cc1 | > 100 µM | > 100 µM | > 100 µM | > 100 µM | > 100 µM | > 100 µM | > 100 | > 100 µM | > 100 µM | – | – | – | – | – | – | – | – | – | – | –
COC1=C(C)C(=O)C2=C(C1=O)C(CO)N1C(C#N)C3CC4C(C1C2N1CCOC41)N3C (stereo not given) | 7.84 µM and 11.1 µM and 11.8 µM | – | – | 0.257 µM and 0.404 µM and 0.0957 µM | – | 0.214 µM and 0.0802 µM and 0.114 µM | – | – | 0.0722 µM and 0.0676 µM | 0.0375 | 0.00438 µM and < 0.0144 µM | – | 1.37 µM | – | 0.00264 µM and 0.0262 µM | – | 0.00201 µM and 0.0178 µM | – | – | –
O=C(O)c1c([N+](=O)[O-])cc(C(F)(F)F)cc1[N+](=O)[O-] | > 100 µM | > 100 µM | > 100 µM | > 100 µM | > 100 µM | > 100 µM | > 100 | > 100 µM | > 100 µM | – | – | – | – | – | – | – | – | – | – | –
Clc1ccccc1C1N2CCCCC2[C@@H]2c3[nH]c4ccccc4c3CCN12 (stereo not given in full) | – | > 100 µM | 31.3 µM | 39.9 µM | 40.2 µM | – | 61.1 | 39 µM | > 100 µM | – | – | – | – | – | – | – | – | – | – | –
C/C=C/C(=O)[C@@H](O)C(C)C | > 100 µM | > 100 µM | – | > 100 µM | > 100 µM | > 100 µM | > 100 | > 100 µM | > 100 µM | – | – | – | – | – | – | – | – | – | – | –
CN(C)C(=S)/N=c1\ssc(=S)n1-c1ccccc1 | 81.8 µM | 43.6 µM | 28.6 µM | 28.5 µM | 33 µM | > 100 µM | 40 | 44.1 µM | 38.3 µM | – | – | – | – | – | – | – | – | – | – | –
O=C1NC2(CCCC2)/C(=N\O)C12CCCC2 | > 100 µM | > 100 µM | > 100 µM | > 100 µM | > 100 µM | > 100 µM | > 100 | > 100 µM | > 100 µM | – | – | – | – | – | – | – | – | – | – | –
CN(C)CCNC(=O)c1cccc2cc([N+](=O)[O-])ccc12 | 2.22 µM | 6.33 µM and 2.28 µM | 3.32 µM and 1.2 µM | 7.43 µM and 1.65 µM | 0.471 µM | 4.92 µM and 0.774 µM | 1.61 | 4.6 µM and 1 µM | 0.722 µM | 0.183 | – | 1.6 µM and 0.441 µM | 6.21 µM | 0.605 µM and 0.157 µM | 1.65 µM and 0.213 µM | 1.28 µM and 0.168 µM | – | – | – | –
Cc1cc2c(=O)cc(-c3ccc(C(F)(F)F)cc3)oc2c(C(=O)O)c1C | > 100 µM | > 100 µM | > 100 µM | > 100 µM | > 100 µM | > 100 µM | > 100 | > 100 µM | > 100 µM | – | – | – | – | – | – | – | – | – | – | –
NC1=NN(c2ccccc2)C(=O)C1/C(=N\NC(=O)c1cc2ccccc2cc1O)C(=O)Nc1nc([N+](=O)[O-])cs1 (stereo not given) | > 100 µM | > 100 µM | > 95.5 µM | 62.6 µM | 7.27 µM | 48.9 µM | > 100 | 30.3 µM | > 73.6 µM | – | – | – | – | – | – | – | – | – | – | –
COc1cc[c]([Sb]([Br])([CH]=C(C)C)([CH]=C(C)C)[CH]=C(C)C)cc1 | > 100 µM | 39.6 µM | 42.5 µM | > 100 µM | 59.1 µM | 9.92 µM | – | 73.1 µM | 23.3 µM | 11.3 | 2.28 µM | 6.29 µM | – | 8.15 µM | 3.03 µM | 29.5 µM | 8.8 µM | 3.3 µM | – | –
O=C(c1ccccn1)c1nc(-c2ccc(Cl)c(Cl)c2)nc2ccc(Cl)cc12 | > 100 µM | > 100 µM | > 100 µM | > 100 µM | 46.8 µM | > 100 µM | > 100 | > 100 µM | > 100 µM | – | – | – | – | – | – | – | – | – | – | –
COc1ccc2[nH]c3c(C)c4cc[n+](C)cc4c(C)c3c2c1 | – | – | 85.3 µM and 29.8 µM | – | 16.5 µM [middle of 4 runs] | 7.15 µM [middle of 4 runs] | – | – | – | – | 0.63 µM | 16.1 µM and 12.9 µM and 2.33 µM | 53 µM and 133 µM | 0.0892 µM and 0.134 µM | 2.07 µM | 13.6 µM and 15.6 µM | 1.54 µM | 0.502 µM and 0.189 µM | 6.34 µM and 1.89 µM and 7.41 µM | 0.478 µM and 0.243 µM
N.N.N.N.N.N#N.[Cl-].[Os+7] | > 100 µM | > 100 µM | > 100 µM | > 100 µM | > 100 µM | > 100 µM | > 100 | > 100 µM | > 100 µM | > 100 | > 100 µM | > 100 µM | – | > 100 µM | > 100 µM | > 100 µM | > 100 µM | > 100 µM | – | > 100 µM
[C-]#[O+].[C-]#[O+].[Ir].[O-]c1ccc2ccccc2c1N=Nc1ccccc1 | 70.1 µM | 49.1 µM | 13.2 µM | 38.7 µM | 6.78 µM | 28.7 µM | 53 | 24.4 µM | – | – | 19.4 µM | – | 40.7 µM | 13.6 µM | – | – | – | – | – | 24.3 µM
NC(=S)N/N=C1\C(=O)N(CCc2ccccc2)C(=O)C1C(=O)NCCc1ccccc1 (stereo not given) | – | > 100 µM | > 100 µM | > 100 µM | > 100 µM | > 100 µM | > 100 | > 100 µM | > 100 µM | – | – | – | – | – | – | – | – | – | – | –
O=C(N[C@@H]1C=CCC[C@@H]1c1ccccc1)OCc1ccccc1 | > 69.6 µM | 72.5 µM | 34.5 µM | 42.6 µM | 35.9 µM | 33.3 µM | 93 | 36.7 µM | 32.4 µM | – | – | – | – | – | – | – | – | – | – | –
CC(C)[C@](O)(C(=O)OCC1=CC[N+]2([O-])CC[C@@H](O)[C@@H]12)[C@H](C)O (stereo not given in full) | > 10000 µM | > 10000 µM | > 10000 µM | > 7940 µM | > 7940 µM | > 10000 µM | > 10000 | > 10000 µM | > 10000 µM | – | – | – | > 10000 µM | – | – | – | – | – | – | –
O=C(c1ccco1)c1ccccc1C(=O)c1ccco1 | > 100 µM | > 100 µM | > 100 µM | > 100 µM | > 100 µM | > 100 µM | > 100 | > 100 µM | > 100 µM | – | – | – | – | – | – | – | – | – | – | –

Source: PubChem BioAssay (NCI)
